{
  "source": "patent US20070282011A1",
  "about": "“Biodegradable water soluble polymers” (MediVas, LLC, priority 2006, published 2007)",
  "key": {"[1]": {"conditions": "ionizable group of side chain R3 of natural amino acid residue; tabulated as a guide; cited from earlier work"}, "[2]": {"test": "in vitro", "conditions": "endothelial cells", "experimental": "(§1) In vitro assays were conducted using endothelial cells and smooth muscle cells.\n(§2) The cells were then fed again with fresh medium (Endothelial Growth Media, EGM-2 BulletKit, Cambrex) and increasing doses of the test substrates were introduced at the following concentrations: 0.1, 0.5, 1, 2, 8 and 40 ng/ml in triplicate. […] The percent cell viability was then determined at 24, 48 and 72 hours following exposure to the test substances, using a standard ATP assay (ViaLight Plus assay kit, Cambrex)."}, "[3]": {"tested_on": "endothelial cells", "test": "In vitro cell culture cytotoxicity, percent cell viability by ATP assay (ViaLight Plus)", "conditions": "0.1-40 ng/ml Taxol equivalent", "experimental": "as §1, §2"}},
  "data": [
    {"compound": "N[C@@H](CCC(=O)O)C(=O)O", "note": "[Glutamic acid]", "values": [
      {"measurement": "pK", "setting": "[1]", "value": 4.07}
    ]},
    {"compound": "NCCCC[C@H](N)C(=O)O", "note": "[Lysine]", "values": [
      {"measurement": "pK", "setting": "[1]", "value": 10.5}
    ]},
    {"compound": "N[C@@H](Cc1c[nH]cn1)C(=O)O", "note": "[Histidine]", "values": [
      {"measurement": "pK", "setting": "[1]", "value": 6.10}
    ]},
    {"compound": "CC(=O)O[C@H]1C(=O)[C@@]2(C)[C@H]([C@H](OC(=O)c3ccccc3)[C@]3(O)C[C@H](OC(=O)[C@H](O)[C@@H](NC(=O)c4ccccc4)c4ccccc4)C(C)=C1C3(C)C)[C@]1(OC(C)=O)CO[C@@H]1C[C@@H]2O", "note": "[Taxol, 5β,20-Epoxy-1,2α,4,7β,10β,13α-hexahydroxytax-11-en-9-one 4,10-diacetate 2-benzoate 13-ester with (2R,3S)—N-benzoyl-3-phenylisoserine]", "values": [
      {"measurement": "viability at 72 h, 0.1 ng/ml", "setting": "[2]", "value": 126, "unit": "%"},
      {"measurement": "viability at 72 h, 0.5 ng/ml", "setting": "[2]", "value": 123, "unit": "%"},
      {"measurement": "viability at 72 h, 1 ng/ml", "setting": "[2]", "value": 114, "unit": "%"},
      {"measurement": "viability at 72 h, 2 ng/ml", "setting": "[2]", "value": 90, "unit": "%"},
      {"measurement": "viability at 72 h, 8 ng/ml", "setting": "[2]", "value": 38.6, "unit": "%"},
      {"measurement": "viability at 72 h, 40 ng/ml", "setting": "[2]", "value": 15.5, "unit": "%"}
    ]},
    {"compound": "CC(=O)O[C@H]1C(=O)[C@@]2(C)[C@H]([C@H](OC(=O)c3ccccc3)[C@]3(O)C[C@H](OC(=O)[C@H](OC(=O)CCC(=O)O)[C@@H](NC(=O)c4ccccc4)c4ccccc4)C(C)=C1C3(C)C)[C@]1(OC(C)=O)CO[C@@H]1C[C@@H]2O", "note": "[Taxol-SA, Taxol-2′-hemisuccinate]", "values": [
      {"measurement": "cytotoxicity to the cells (in words)", "setting": "[3]", "value": "does not appear to change the cytotoxicity"}
    ]},
    {"compound": "N[C@@H](Cc1ccc(O)cc1)C(=O)O", "note": "[Tyrosine]", "values": [
      {"measurement": "pK", "setting": "[1]", "value": 10.0}
    ]}
  ]
}
